Calls of active or inactive are those of the source. The rule behind the calls is not given here.
Tests used:
[1] = Antiviral activity against Respiratory syncytial virus long A infected in human Hep2 cells assessed as reduction in virus-induced cytopathic effect measured after 6 days by CCK8 assay; format: functional, cell-based, Respiratory syncytial virus type A; settings: HEp-2, 144 h
[2] = Cytotoxicity against human Hep2 cells measured after 6 days by CCK8 assay; format: cell-based, HEp-2
[3] = test system: Respiratory syncytial virus; assay: Inhibition of Respiratory syncytial virus long A fusion protein expressed in expressed in human Flp-In T-REx-293 cells assessed as inhibition of cell-cell fusion at 1 to 100 nM measured after 3 days by microscopic analysis; format: cell-based
[4] = Intrinsic clearance in human liver microsomes; format: ADME; settings: read-out: CLH
[5] = Intrinsic clearance in rat liver microsomes; format: ADME; settings: read-out: CLH
[6] = Clearance in Wistar rat at […], iv by LC-MS/MS analysis; format: ADME, organism-based; settings: in vivo
[7] = Volume of distribution at steady state in Wistar rat at […], iv by LC-MS/MS analysis; format: ADME, organism-based; settings: in vivo, read-out: Vdss
[8] = Half life in Wistar rat at […], iv by LC-MS/MS analysis; format: ADME, organism-based; settings: in vivo
[9] = Oral availability in Wistar rat at […] by LC-MS/MS analysis; format: ADME, organism-based; settings: in vivo
[10] = Solubility of the compound by LYSA; format: physicochemical
[11] = Permeability of the compound by PAMPA assay; format: ADME; settings: read-out: permeability
[12] = test system: Respiratory syncytial virus; assay: Antiviral activity against Respiratory syncytial virus long A infected in human Hep2 cells assessed as inhibition of viral replication measured after 3 days by plaque reduction assay; format: functional, organism-based; settings: HEp-2, 72 h
[13] = test system: Respiratory syncytial virus; assay: Inhibition of Respiratory syncytial virus long A fusion protein expressed in human Flp-In T-REx-293 cells assessed as inhibition of cell-cell fusion at 0.1 to 100 nM measured after 3 days by microscopic analysis; format: cell-based

Compound	EC50 [1]	CC50 at 144 h [2]	other results
NCCNc1cc(N2CCN(C(=O)Cc3ccccc3)CC2)nc2ccccc12	79 nM	> 100000 nM	
NCCNc1cc(N2CCN(S(=O)(=O)c3ccccc3)CC2)nc2ccccc12	1170 nM	20500 nM	
CC(C)(C(=O)N1CCN(c2cc(NCCO)c3ccccc3n2)CC1)c1ccccc1	322 nM	> 100000 nM	
N#Cc1cccc(CC(=O)N2CCN(c3cc(NCCN)c4ccccc4n3)CC2)c1	225 nM	> 100000 nM	
CC(C(=O)N1CCN(c2cc(NCCN)c3ccccc3n2)CC1)c1ccccc1 (stereo unspecified)	91 nM	> 100000 nM	
CC(=O)N1CCN(c2cc(NCCN)c3ccccc3n2)CC1	317 nM	> 100000 nM	
NCCNc1cc(N2CCN(C(=O)C3CCCCC3)CC2)nc2ccccc12	9240 nM	> 100000 nM	
CC(C)(C(=O)N1CCN(c2cc(NCCN)c3cc(Cl)ccc3n2)CC1)c1ccccc1	99 nM	20800 nM	
Cc1ccc(CC(=O)N2CCN(c3cc(NCCN)c4ccccc4n3)CC2)cc1	142 nM	> 100000 nM	
NCCNc1cc(N2CCN(C(=O)Cc3ccc(Cl)c(Cl)c3)CC2)nc2ccccc12	220 nM	6680 nM	
NCCNc1cc(N2CCN(C(=O)Cc3cc(F)cc(F)c3)CC2)nc2ccccc12	264 nM	> 100000 nM	
COc1cccc(CC(=O)N2CCN(c3cc(NCCN)c4ccccc4n3)CC2)c1	98 nM	> 100000 nM	
NCC(O)CNc1cc(N2CCC(c3ccccc3)CC2)nc2ccccc12 (stereo unspecified)	759 nM	20800 nM	
NCCNc1cc(N2CCN(C(=O)CCc3ccccc3)CC2)nc2ccccc12	464 nM	> 100000 nM	
CNCCNc1cc(N2CCN(C(=O)C(C)(C)c3ccccc3)CC2)nc2ccccc12	33 nM	> 100000 nM	inhibition [3]: Active; CLint scaled [4]: 5.7 mL/min/kg; CLint scaled [5]: 18 mL/min/kg; clearance [6]: 143 mL/min/kg; Vd [7]: 67.9 L/kg; half-life [8]: 7.3 h; bioavailability [9]: 41%; solubility [10]: > 400 µg/mL; Papp [11]: 1.37 ×10⁻⁶ cm/s
NCCNc1cc(N2CCN(C(=O)Cc3cccc(Cl)c3)CC2)nc2ccccc12	66 nM	> 100000 nM	
NCCNc1cc(N2CCN(c3ccccc3Cl)CC2)nc2ccccc12	2010 nM	20800 nM	
NCCNc1cc(N2CCN(C(=O)Cc3ccc(F)cc3)CC2)nc2ccccc12	95 nM	> 100000 nM	
NCCNc1cc(N2CCN(C(=O)Cc3ccc(Cl)cc3)CC2)nc2ccccc12	58 nM	> 100000 nM	
CC(=O)NCCNc1cc(N2CCN(C(=O)C(C)(C)c3ccccc3)CC2)nc2ccccc12	15600 nM	> 100000 nM	
NCCNc1cc(N2CCN(C(=O)Cc3ccc(F)c(F)c3)CC2)nc2ccccc12	255 nM	> 100000 nM	
NCCNc1cc(N2CCN(c3cccc(Cl)c3)CC2)nc2ccccc12	977 nM	6400 nM	
NCCNc1cc(N2CCN(C(=O)C3(c4ccccc4)CCC3)CC2)nc2ccccc12	86 nM	> 100000 nM	

Compound	EC50 [1]	CC50 at 144 h [2]	other results
CC(C)CC(=O)N1CCN(c2cc(NCCN)c3ccccc3n2)CC1	1880 nM	> 100000 nM	
NCCNc1cc(N2CCN(C(=O)Cc3cccc(C(F)(F)F)c3)CC2)nc2ccccc12	563 nM	> 100000 nM	
CS(=O)(=O)N1CCN(c2cc(NCCN)c3ccccc3n2)CC1	2270 nM	> 100000 nM	
Cc1ccccc1CC(=O)N1CCN(c2cc(NCCN)c3ccccc3n2)CC1	29 nM	> 100000 nM	
COc1ccc(CC(=O)N2CCN(c3cc(NCCN)c4ccccc4n3)CC2)cc1	679 nM	> 100000 nM	
NCCNc1cc(N2CCN(C(=O)C3(c4ccccc4)CC3)CC2)nc2ccccc12	17 nM	> 100000 nM	
COc1ccccc1CC(=O)N1CCN(c2cc(NCCN)c3ccccc3n2)CC1	56 nM	> 100000 nM	
NCCNc1cc(N2CCN(c3ccc(Cl)cc3)CC2)nc2ccccc12	> 100000 nM	6600 nM	
NCCNc1cc(N2CCN(C(=O)Cc3cccc(F)c3)CC2)nc2ccccc12	80 nM	> 100000 nM	
NCCNc1cc(N2CCN(C(=O)Cc3ccccc3F)CC2)nc2ccccc12	89 nM	> 100000 nM	
NCCNc1cc(N2CCN(c3ccccc3)CC2)nc2ccccc12	865 nM	20800 nM	
CC(C)(C(=O)N1CCN(c2cc(NCCN)c3ccc(Cl)cc3n2)CC1)c1ccccc1	2190 nM	20900 nM	
NCCNc1cc(N2CCN(C(=O)C3(c4ccccc4)CCCC3)CC2)nc2ccccc12	3820 nM	> 100000 nM	
CC(C)(C(=O)N1CCN(c2cc(NCCN)c3c(Cl)cccc3n2)CC1)c1ccccc1	7960 nM	20800 nM	
CCC(=O)N1CCN(c2cc(NCCN)c3ccccc3n2)CC1	3090 nM	> 100000 nM	
NCCNc1cc(N2CCN(C(=O)c3ccccc3)CC2)nc2ccccc12	570 nM	> 100000 nM	
CCC(C(=O)N1CCN(c2cc(NCCN)c3ccccc3n2)CC1)c1ccccc1 (stereo unspecified)	556 nM	> 100000 nM	
CCC(CC)(C(=O)N1CCN(c2cc(NCCN)c3ccccc3n2)CC1)c1ccccc1	624 nM	> 100000 nM	
NCCNc1cc(N2CCN(C(=O)Cc3ccccc3Cl)CC2)nc2ccccc12	77 nM	> 100000 nM	
Cc1cccc(CC(=O)N2CCN(c3cc(NCCN)c4ccccc4n3)CC2)c1	59 nM	> 100000 nM	
CN(C)CCNc1cc(N2CCN(C(=O)C(C)(C)c3ccccc3)CC2)nc2ccccc12	929 nM	55200 nM	
CC(C)(C(=O)N1CCN(c2cc(NCCN)c3ccccc3n2)CC1)c1ccccc1	28 nM	> 100000 nM	EC50 [12]: < 100 nM; inhibition [13]: Active; CLint scaled [4]: 8.4 mL/min/kg; CLint scaled [5]: 16.6 mL/min/kg; clearance [6]: 222 mL/min/kg; Vd [7]: 36.9 L/kg; half-life [8]: 3 h; bioavailability [9]: 57%; solubility [10]: > 400 µg/mL; Papp [11]: 0.74 ×10⁻⁶ cm/s
CC(C)C(=O)N1CCN(c2cc(NCCN)c3ccccc3n2)CC1	847 nM	> 100000 nM	
